Measured values as given in patent US12514840B2, “Treatment of idiopathic hypohidrosis” (NATIONAL SKIN CENTRE (SINGAPORE) PTE LTD, priority 2019, dated 2026).

How the values were obtained:
Format in all cases: in vivo, human
[1] = system: patients with idiopathic hypohidrosis; test: Treatment of fourteen patients with idiopathic hypohidrosis with oral retinoids (exercise, starch-iodine sweat test, HD-OCT); conditions: for patients who responded and were successfully treated: generalised hypohidrosis, three with acitretin (one did not respond)
Description: Fourteen patients presenting with idiopathic hypohidrosis underwent monitored exercising on a stationary bicycle for 20 minutes. Their temperature and heart rate were repeatedly measured during the exercise. Subsequently, using a spray gun, starch-iodine powder was sprayed onto the whole body of the patient and the powder coats onto the skin (FIG. 1). The coat of powder on body areas with sweating turned purple, while the powder in areas without sweat remained brown (FIG. 2). This allows the body surface area of anhidrosis to be assessed. Thereafter, the patient rinsed off the powder, which washed off easily with water.
The patients' skin was subsequently imaged using high-definition optical coherence tomography (HD-OCT) non-invasive skin imaging (Skintell, Agfa, Belgium). HD-OCT uses an infrared (1000-1700 nm), interferometric and time-domain imaging technique. Instead of a single pin diode light detector, it uses a two-dimensional imaging array to allow for simultaneous cross-sectional and en face images acquisition. A high lateral resolution of 3 μm is ensured using a technique called continuous focus tracking. The capture of a 3D image (containing 57 million voxels) takes 2-3 seconds and the information acquired can subsequently be digitally analysed.
The fourteen patients suffering from idiopathic hypohidrosis were offered treatment according to the invention.
All of the treated patients were started on an oral dose of isotretinoin or acitretin of between 5 and 20 mg once daily for at least six weeks. If necessary, this dose was adjusted, whether increased because the initial dose was ineffective, or decreased to reduce the expected side effects associated with oral retinoids. All patients responded to a dose of between 10 and 30 mg once daily. This dose was further adjusted as required until symptoms of idiopathic hypohidrosis had resolved. Administration of retinoids was continued to prevent reoccurrence of symptoms.

[2] = system: patients with idiopathic hypohidrosis; test: Long term retrospective assessment of 28 patients with idiopathic hypohidrosis, 20 treated with retinoids
Description: A retrospective analysis on patients with isolated hypohidrosis who attended a neuro-dermatology clinic over a 5.75-year period was conducted. All patients routinely underwent standardized exercising and whole-body starch-iodine test, followed by non-invasive HD-OCT skin imaging, and their treatment history was analysed.
28 patients with idiopathic hypohidrosis were included in the study, 14 of whom were affected in a generalised manner (with 70% and more of body surface affected) and 14 in a partial manner. 14 of the 28 patients were those which were the subject of Example 1, and 14 patients were new.

[3] = system: sweat apparatus (glands or ducts) of patients with idiopathic hypohidrosis; test: Injection of Carbachol to locate the pathology in idiopathic hypohidrosis (induction of sweating)
[4] = five treated with isotretinoin, oral once daily
[5] = one patient successfully treated with isotretinoin

Row | Compound | patients who responded and were successfully treated [1, 4] | patients recovered ([2]; of three patients treated, one did not respond) [patients] | HD-OCT imaging of lesions after treatment [1, 5] | sweat test after treatment [1, 5] | patients who responded to treatment and were successfully treated ([1]; partial hypohidrosis, five treated with isotretinoin, oral once daily) | patients recovered well enough to return to their pre-morbid sporting activities ([2]; seventeen patients (7 generalised and 10 partial), oral) [%] | induction of sweating ([3]; injection at regions where patients could sweat) | induction of sweating ([3]; injection in areas where patients cannot sweat)
1 | COc1cc(C)c(/C=C/C(C)=C/C=C/C(C)=C/C(=O)O)c(C)c1C [acitretin] | Two of the three | 2 |  |  |  |  |  | 
2 | CC1=C(/C=C/C(C)=C/C=C/C(C)=C\C(=O)O)C(C)(C)CCC1 [isotretinoin, 13-cis-retinoic acid] | All five |  | no longer visible | normalised extent of sweating | All five | 100 |  | 
3 | C[N+](C)(C)CCOC(N)=O [Carbachol] |  |  |  |  |  |  | induced sweating | could not do so
